Measured values: ChEMBL document CHEMBL1139148, “N-Phenyl-N'-(2-chloroethyl)urea analogues of combretastatin A-4: Is the N-phenyl-N'-(2-chloroethyl)urea pharmacophore mimicking the trimethoxy phenyl moiety?” (2007)

Legend:
Assay type in all cases: functional
[1] = system: M21; assay: Cell cycle arrest in human M21 cells assessed as accumulation at S phase at 24 uM after 24 hrs
[2] = system: M21; assay: Cell cycle arrest in human M21 cells assessed as accumulation at G2/M phase at 200 uM after 24 hrs
[3] = system: M21; assay: Induction of apoptosis in human M21 cells at 80 uM after 24 hrs
[4] = system: HT-29; assay: Growth inhibition of human HT29 cells
[5] = system: M21; assay: Induction of apoptosis in human M21 cells at 24 uM after 24 hrs
[6] = system: M21; assay: Cell cycle arrest in human M21 cells assessed as accumulation at G1 phase at 200 uM after 24 hrs
[7] = system: M21; assay: Cell cycle arrest in human M21 cells assessed as accumulation at S phase at 200 uM after 24 hrs
[8] = system: M21; assay: Growth inhibition of human M21 cells
[9] = system: M21; assay: Cell cycle arrest in human M21 cells assessed as accumulation at S phase at 80 uM after 24 hrs
[10] = system: M21; assay: Cell cycle arrest in human M21 cells assessed as accumulation at G1 phase at 80 uM after 24 hrs
[11] = system: M21; assay: Cell cycle arrest in human M21 cells assessed as accumulation at G2/M phase at 24 uM after 24 hrs
[12] = system: M21; assay: Induction of apoptosis in human M21 cells at 200 uM after 24 hrs
[13] = system: M21; assay: Cell cycle arrest in human M21 cells assessed as accumulation at G1 phase at 24 uM after 24 hrs
[14] = system: MDA-MB-231; assay: Growth inhibition of human MDA-MB-231 cells
[15] = system: M21; assay: Cell cycle arrest in human M21 cells assessed as accumulation at G2/M phase at 80 uM after 24 hrs
[16] = system: MCF7; assay: Growth inhibition of human MCF7 cells
[17] = system: M21; assay: Cell cycle arrest in human M21 cells assessed as accumulation at S phase at 21 uM after 24 hrs
[18] = system: M21; assay: Cell cycle arrest in human M21 cells assessed as accumulation at G2/M phase at 6 uM after 24 hrs
[19] = system: M21; assay: Cell cycle arrest in human M21 cells assessed as accumulation at G2/M phase at 21 uM after 24 hrs
[20] = system: M21; assay: Induction of apoptosis in human M21 cells at 21 uM after 24 hrs
[21] = system: M21; assay: Cell cycle arrest in human M21 cells assessed as accumulation at S phase at 6 uM after 24 hrs
[22] = system: M21; assay: Cell cycle arrest in human M21 cells assessed as accumulation at G1 phase at 53 uM after 24 hrs
[23] = system: M21; assay: Cell cycle arrest in human M21 cells assessed as accumulation at G1 phase at 21 uM after 24 hrs
[24] = system: M21; assay: Cell cycle arrest in human M21 cells assessed as accumulation at G2/M phase at 53 uM after 24 hrs
[25] = system: M21; assay: Cell cycle arrest in human M21 cells assessed as accumulation at S phase at 53 uM after 24 hrs
[26] = system: M21; assay: Induction of apoptosis in human M21 cells at 6 uM after 24 hrs
[27] = system: M21; assay: Cell cycle arrest in human M21 cells assessed as accumulation at G1 phase at 6 uM after 24 hrs
[28] = system: M21; assay: Induction of apoptosis in human M21 cells at 53 uM after 24 hrs
[29] = system: M21; assay: Cell cycle arrest in human M21 cells assessed as accumulation at G2/M phase at 0.125 uM after 24 hrs
[30] = system: M21; assay: Cell cycle arrest in human M21 cells assessed as accumulation at G2/M phase at 0.050 uM after 24 hrs
[31] = system: M21; assay: Cell cycle arrest in human M21 cells assessed as accumulation at G1 phase at 0.050 uM after 24 hrs
[32] = system: M21; assay: Induction of apoptosis in human M21 cells at 0.015 uM after 24 hrs
[33] = system: M21; assay: Cell cycle arrest in human M21 cells assessed as accumulation at S phase at 0.015 uM after 24 hrs
[34] = system: M21; assay: Cell cycle arrest in human M21 cells assessed as accumulation at G1 phase at 0.015 uM after 24 hrs
[35] = system: M21; assay: Induction of apoptosis in human M21 cells at 0.125 uM after 24 hrs
[36] = system: M21; assay: Cell cycle arrest in human M21 cells assessed as accumulation at S phase at 0.125 uM after 24 hrs
[37] = system: M21; assay: Cell cycle arrest in human M21 cells assessed as accumulation at G1 phase at 0.125 uM after 24 hrs
[38] = system: M21; assay: Induction of apoptosis in human M21 cells at 0.050 uM after 24 hrs
[39] = system: M21; assay: Cell cycle arrest in human M21 cells assessed as accumulation at S phase at 0.050 uM after 24 hrs
[40] = system: M21; assay: Cell cycle arrest in human M21 cells assessed as accumulation at G2/M phase at 0.015 uM after 24 hrs

Work on `COc1ccc(/C=C/c2cccc(NC(=O)NCCCl)c2)cc1O` yielded an Activity [1] of 16.6%, an Activity [2] of 19.6% and an Activity [3] of 5.3%. It also gave a GI50 [4] of 68.2 µM, an Activity [5] of 8.3% and an Activity [6] of 40.3%. The Activity [7] was 19%, the GI50 [8] was 22.7 µM and the Activity [9] was 18.7%. The Activity [10] was 38.1%, the Activity [11] was 22.5% and the Activity [12] was 4.5%. The Activity [13] was 37.2%, the GI50 [14] was 16.5 µM and the Activity [15] was 21.3%. It also gave a GI50 [16] of 28.2 µM.

`COc1ccc(CCc2cccc(NC(=O)NCCCl)c2)cc1O` was tested, and the Activity [1] was 20.7%, the Activity [2] was 42.6% and the Activity [3] was 18.7%. For the same compound, the GI50 [4] was 9.6 µM, the Activity [5] was 12.5% and the Activity [6] was 13.5%. The Activity [7] was 15.7%, the GI50 [8] was 4.7 µM and the Activity [9] was 16.4%. The Activity [10] was 15.2%, the Activity [11] was 27.5% and the Activity [12] was 6.9%. For the same compound, the Activity [13] was 23.8%, the GI50 [14] was 4.1 µM and the Activity [15] was 34.9%. It also gave a GI50 [16] of 11.6 µM.

With `COc1ccc(/C=C\c2cccc(NC(=O)NCCCl)c2)cc1O` the Activity [1] was 12.3%, the Activity [2] was 41.3% and the Activity [3] was 15%. It also gave a GI50 [4] of 9.2 µM, an Activity [5] of 44.8% and an Activity [6] of 14.7%. The Activity [7] was 10.5%, the GI50 [8] was 4 µM and the Activity [9] was 16.4%. It also gave an Activity [10] of 18.4%, an Activity [11] of 12.5% and an Activity [12] of 21.7%. The Activity [13] was 22.1%, the GI50 [14] was 4.9 µM and the Activity [15] was 35.5%. It also gave a GI50 [16] of 4.5 µM.

`COc1ccc(CCc2ccc(NC(=O)NCCCl)cc2)cc1O` gave an Activity [1] of 9.9%, an Activity [2] of 47.9% and an Activity [3] of 2.3%. For the same compound, the GI50 [4] was 15.3 µM, the Activity [5] was 2.8% and the Activity [6] was 7.2%. For the same compound, the Activity [7] was 16.3%, the GI50 [8] was 16.3 µM and the Activity [9] was 13.4%. The Activity [10] was 15.5%, the Activity [11] was 30.2% and the Activity [12] was 2.6%. The Activity [13] was 37.8%, the GI50 [14] was 11 µM and the Activity [15] was 45.1%. For the same compound, the GI50 [16] was 15.9 µM.

In the case of `COc1ccc(/C=C\c2ccc(NC(=O)NCCCl)cc2)cc1O`, the Activity [17] is reported as 9.7%, the Activity [18] is reported as 43.3% and the Activity [19] is reported as 47.2%. For the same compound, the Activity [20] was 17.6%, the Activity [21] was 15.8% and the Activity [22] was 8.1%. It also gave a GI50 [4] of 2.4 µM, a GI50 [8] of 0.97 µM and an Activity [23] of 6.8%. It also gave an Activity [24] of 48%, an Activity [25] of 12.5% and a GI50 [14] of 0.86 µM. It also gave an Activity [26] of 10.7%, an Activity [27] of 11.4% and a GI50 [16] of 1.65 µM. For the same compound, the Activity [28] was 9.7%.

`COc1ccc(/C=C/c2ccc(NC(=O)NCCCl)cc2)cc1O` gave an Activity [1] of 12.9%, an Activity [2] of 12.4% and an Activity [3] of 5.5%. The GI50 [4] was 1.18 µM, the Activity [5] was 9.9% and the Activity [6] was 37.4%. It also gave an Activity [7] of 21.9%, a GI50 [8] of 8.38 µM and an Activity [9] of 15.6%. It also gave an Activity [10] of 38.8%, an Activity [11] of 19.5% and an Activity [12] of 11.9%. For the same compound, the Activity [13] was 38.1%, the GI50 [14] was 17.4 µM and the Activity [15] was 21%. The GI50 [16] was 14 µM.

With `O=C(NCCCl)Nc1cccc(CCCCCO)c1` the GI50 [4] was 0.16 µM, the GI50 [8] was 0.27 µM and the GI50 [14] was 0.23 µM. The GI50 [16] was 0.48 µM.

Compound `COc1ccc(/C=C\c2cc(OC)c(OC)c(OC)c2)cc1O` [COMBRETASTATIN A4] has an Activity [29] of 45.4%, an Activity [30] of 40.6% and an Activity [31] of 10.1%. For the same compound, the Activity [32] was 10.7%, the Activity [33] was 15% and the Activity [34] was 9.4%. For the same compound, the GI50 [4] was 0.089 µM, the Activity [35] was 11.6% and the GI50 [8] was 0.002 µM. For the same compound, the Activity [36] was 14.7%, the Activity [37] was 8.2% and the Activity [38] was 15.8%. For the same compound, the GI50 [14] was 0.002 µM, the GI50 [16] was 0.003 µM and the Activity [39] was 14.6%. The Activity [40] was 46.4%.
